Laboratory results taken from PubChem BioAssay AID330 (DTP/NCI, 2004).
“And” between values parts separate entries of the source, which are not always exact repeats. Identical values can stand only once. Inconclusive results and toxic doses are left out. Rule for the calls: active = survival T/C of 150% or more; inactive = T/C below 125% in these data. Peptide text beside a SMILES is read from it. * marks the point of attachment. Cbz = O=C(OCc1ccccc1)*; OtBu = CC(C)(C)O*

Tested on: P388 leukemia ip, CD2F1 mice, survival T/C
Assay: NCI In Vivo Anticancer Drug Screen. Data for tumor model P388 Leukemia (intraperitoneal) in CD2F1 (CDF1) mice
Conditions: endpoint: median survival time, higher = longer survival
Summary of the method: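 Mice carrying the transplanted tumor received test compound or vehicle. Survival was recorded in each group, and the value is the treated-group measurement divided by that of the vehicle-treated control group.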

[1] = dose: 50.0 mg/kg/injection, schedule: Q01DX009 (ip), vehicle: saline with Tween-80
[2] = dose: 100.0 mg/kg/injection, schedule: Q01DX009 (ip), vehicle: saline with Tween-80
[3] = dose: 200.0 mg/kg/injection, schedule: Q01DX009 (ip), vehicle: saline with Tween-80
[4] = dose: 100.0 mg/kg/injection, schedule: Q04DX003 (ip), vehicle: saline with Tween-80
[5] = dose: 200.0 mg/kg/injection, schedule: Q04DX003 (ip), vehicle: saline with Tween-80
[6] = dose: 50.0 mg/kg/injection, schedule: Q01DX005 (ip), vehicle: Klucel (hydroxypropylcellulose) (HPC)
[7] = dose: 100.0 mg/kg/injection, schedule: Q01DX005 (ip), vehicle: Klucel (hydroxypropylcellulose) (HPC)
[8] = dose: 200.0 mg/kg/injection, schedule: Q01DX005 (ip), vehicle: Klucel (hydroxypropylcellulose) (HPC)
[9] = dose: 60.0 mg/kg/injection, schedule: Q01DX005 (ip), vehicle: saline with Tween-80
[10] = dose: 120.0 mg/kg/injection, schedule: Q01DX005 (ip), vehicle: saline with Tween-80
[11] = dose: 240.0 mg/kg/injection, schedule: Q01DX005 (ip), vehicle: saline with Tween-80
[12] = dose: 50.0 mg/kg/injection, schedule: Q01DX005 (ip), vehicle: saline with Tween-80
[13] = dose: 100.0 mg/kg/injection, schedule: Q01DX005 (ip), vehicle: saline with Tween-80
[14] = dose: 200.0 mg/kg/injection, schedule: Q01DX005 (ip), vehicle: saline with Tween-80
[15] = dose: 60.0 mg/kg/injection, schedule: Q01DX005 (ip), vehicle: saline
[16] = dose: 120.0 mg/kg/injection, schedule: Q01DX005 (ip), vehicle: saline
[17] = dose: 240.0 mg/kg/injection, schedule: Q01DX005 (ip), vehicle: saline

Measured: T/C

CCCCCCCCCCCCCCCC[N+]1(CC)CCCCC1
inactive: dose: 0.59 mg/kg/injection, schedule: Q01DX009 (ip), vehicle: saline 121 % of control | dose: 0.78 mg/kg/injection, schedule: Q01DX009 (ip), vehicle: saline 89 % of control

ClCC1CSC(c2ccc3c(c2)OCO3)O1 (stereo unspecified)
inactive: [1] 101 % of control and 96 % of control | [2] 121 % of control and 91 % of control | [3] 98 % of control

COC(=O)C(CCC(=O)OC(C)(C)C)NC(=O)C(NC(=O)OCc1ccccc1)C(C)C (stereo not drawn) (Cbz-Val-Glu(OtBu)-OMe; configuration not given here)
inactive: [4] 110 % of control | [5] 120 % of control | dose: 400.0 mg/kg/injection, schedule: Q04DX003 (ip), vehicle: saline with Tween-80 90 % of control

Nc1nc(N)nc(N(CCO)CCO)n1
inactive: [6] 111 % of control | [7] 102 % of control | [8] 106 % of control

O=C1CN2CCN3CC(=O)NC(=O)[C@H]3[C@H]2C(=O)N1
inactive: [9] 101 % of control | [10] 101 % of control | [11] 93 % of control

[Cl][Cu][Cl].[NH-]C1CCCC2CCC[N-]C12 (stereo unspecified)
inactive: dose: 12.5 mg/kg/injection, schedule: Q04DX002 (ip), vehicle: saline with Tween-80 106 % of control

CSc1nc(N)c(NS(=O)(=O)c2ccccc2)c(=O)[nH]1
inactive: dose: 60.0 mg/kg/injection, schedule: Q01DX005 (ip), vehicle: Klucel (hydroxypropylcellulose) (HPC) 92 % of control | dose: 120.0 mg/kg/injection, schedule: Q01DX005 (ip), vehicle: Klucel (hydroxypropylcellulose) (HPC) 91 % of control | dose: 240.0 mg/kg/injection, schedule: Q01DX005 (ip), vehicle: Klucel (hydroxypropylcellulose) (HPC) 90 % of control

Cn1c2nc(=O)[nH]c(=O)c-2cc2ccccc21
inactive: dose: 25.0 mg/kg/injection, schedule: Q04DX003 (ip), vehicle: saline with Tween-80 95 % of control | dose: 50.0 mg/kg/injection, schedule: Q04DX003 (ip), vehicle: saline with Tween-80 93 % of control | [4] 90 % of control | [5] 94 % of control

CN(C(=S)S(C)(=O)=O)c1ccccc1
inactive: dose: 3.12 mg/kg/injection, schedule: Q01DX009 (ip), vehicle: Klucel (hydroxypropylcellulose) (HPC) 102 % of control | dose: 6.25 mg/kg/injection, schedule: Q01DX009 (ip), vehicle: Klucel (hydroxypropylcellulose) (HPC) 100 % of control | dose: 12.5 mg/kg/injection, schedule: Q01DX009 (ip), vehicle: Klucel (hydroxypropylcellulose) (HPC) 86 % of control

COc1ccc(C(=O)N2CC(OC(C)=O)=CC2=O)cc1
inactive: dose: 50.0 mg/kg/injection, schedule: Q01DX009 (ip), vehicle: Klucel (hydroxypropylcellulose) (HPC) 107 % of control | dose: 100.0 mg/kg/injection, schedule: Q01DX009 (ip), vehicle: Klucel (hydroxypropylcellulose) (HPC) 110 % of control | dose: 200.0 mg/kg/injection, schedule: Q01DX009 (ip), vehicle: Klucel (hydroxypropylcellulose) (HPC) 106 % of control

CC(C)CN1CC(=O)N2CCCC(C)N2C(=O)C1 (stereo unspecified)
inactive: [12] 100 % of control | [13] 99 % of control | [14] 102 % of control

CN(C)CCSC1=Nc2ccc(Cl)cc2C(c2ccccc2Cl)=NC1
inactive: [9] 98 % of control | [15] 99 % of control | [10] 101 % of control | [16] 104 % of control | [11] 105 % of control | [17] 98 % of control

O=C1OCCC1C(O)c1ccccc1 (stereo unspecified)
inactive: dose: 25.0 mg/kg/injection, schedule: Q01DX009 (ip), vehicle: other 110 % of control | dose: 50.0 mg/kg/injection, schedule: Q01DX009 (ip), vehicle: other 102 % of control | dose: 100.0 mg/kg/injection, schedule: Q01DX009 (ip), vehicle: other 110 % of control | dose: 200.0 mg/kg/injection, schedule: Q01DX009 (ip), vehicle: other 107 % of control | dose: 400.0 mg/kg/injection, schedule: Q01DX009 (ip), vehicle: other 111 % of control

C=C(C)C(=O)NC(C)C(=O)O (stereo unspecified)
inactive: dose: 50.0 mg/kg/injection, schedule: Q01DX009 (ip), vehicle: saline 106 % of control | dose: 100.0 mg/kg/injection, schedule: Q01DX009 (ip), vehicle: saline 100 % of control | dose: 200.0 mg/kg/injection, schedule: Q01DX009 (ip), vehicle: saline 100 % of control

CCOC(=Nc1ccc(C#N)cc1)SC(c1ccccc1)(c1ccccc1)c1ccccc1
inactive: [12] 104 % of control | [13] 96 % of control | [14] 86 % of control

CN(C)C(=O)CC(O)c1ccccc1 (stereo unspecified)
inactive: dose: 50.0 mg/kg/injection, schedule: Q01DX005 (ip), vehicle: saline 102 % of control | dose: 100.0 mg/kg/injection, schedule: Q01DX005 (ip), vehicle: saline 105 % of control | dose: 200.0 mg/kg/injection, schedule: Q01DX005 (ip), vehicle: saline 100 % of control

C=C(CCCC)[Se]c1ccccc1
inactive: dose: 25.0 mg/kg/injection, schedule: Q01DX009 (ip), vehicle: saline with Tween-80 103 % of control and 107 % of control | [1] 107 % of control and 95 % of control | [2] 101 % of control and 117 % of control

Cc1cc(C)[nH]c(=O)c1
inactive: [2] 100 % of control | [3] 100 % of control | dose: 400.0 mg/kg/injection, schedule: Q01DX009 (ip), vehicle: saline with Tween-80 109 % of control

Cc1cccc(Nc2cc(=O)[nH]c(=O)[nH]2)c1
inactive: dose: 100.0 mg/kg/injection, schedule: Q04DX003 (ip), vehicle: Klucel (hydroxypropylcellulose) (HPC) 110 % of control | dose: 200.0 mg/kg/injection, schedule: Q04DX003 (ip), vehicle: Klucel (hydroxypropylcellulose) (HPC) 98 % of control

c1ccc2c(c1)Nc1ccccc1O2
inactive: dose: 25.0 mg/kg/injection, schedule: Q01DX005 (ip), vehicle: Klucel (hydroxypropylcellulose) (HPC) 98 % of control | [6] 91 % of control | [7] 100 % of control | [8] 99 % of control

COc1ccc(/C=N/c2oc(-c3ccccc3)c(-c3ccccc3)c2-c2ccc(OC)cc2)cc1
inactive: dose: 12.5 mg/kg/injection, schedule: Q01DX005 (ip), vehicle: saline with Tween-80 92 % of control | dose: 25.0 mg/kg/injection, schedule: Q01DX005 (ip), vehicle: saline with Tween-80 87 % of control

O=C(O)c1cscn1
inactive: [15] 100 % of control | [16] 97 % of control | [17] 113 % of control

CCOC(=O)C1Cc2c([nH]c(=O)[nH]c2=O)OC1(C)c1ccccc1 (stereo unspecified)
inactive: [6] 103 % of control | [7] 98 % of control | [8] 97 % of control

COc1cc2c(cc1C(C)c1ccccc1)OCO2 (stereo unspecified)
inactive: [12] 96 % of control | [13] 96 % of control | [14] 111 % of control

S=c1oc(-c2ccc3c(c2)OCO3)nn1CN1CCN(Cn2nc(-c3ccc4c(c3)OCO4)oc2=S)CC1
inactive: [6] 96 % of control | [7] 96 % of control | [8] 93 % of control

O=c1[nH]nnc2c1ncn2C1OC(CO)C(O)C1O (stereo unspecified)
inactive: dose: 12.5 mg/kg/injection, schedule: Q01DX001 (ip), vehicle: saline 99 % of control | dose: 25.0 mg/kg/injection, schedule: Q01DX001 (ip), vehicle: saline 106 % of control | dose: 50.0 mg/kg/injection, schedule: Q01DX001 (ip), vehicle: saline 100 % of control | dose: 100.0 mg/kg/injection, schedule: Q01DX001 (ip), vehicle: saline 99 % of control

CC(=O)NS(=O)(=O)c1ccc(N=NC2C(=O)N(C(=O)c3ccccc3)N=C2C)cc1 (stereo unspecified)
inactive: dose: 50.0 mg/kg/injection, schedule: Q01DX001 (ip), vehicle: Klucel (hydroxypropylcellulose) (HPC) 93 % of control | dose: 100.0 mg/kg/injection, schedule: Q01DX001 (ip), vehicle: Klucel (hydroxypropylcellulose) (HPC) 95 % of control | dose: 200.0 mg/kg/injection, schedule: Q01DX001 (ip), vehicle: Klucel (hydroxypropylcellulose) (HPC) 93 % of control

CCCCCC(CN(C)C)C(=O)/C=C/c1ccc2c(c1)OCO2 (stereo unspecified)
inactive: [1] 123 % of control | [2] 109 % of control
